Source: patent publication US11479559B2, “Urea-substituted aromatic ring-linked dioxinoquinoline compounds, preparation method and uses thereof” (BEIJING SCITECH-MQ PHARMACEUTICALS LIMITED, priority 2018, dated 2022)

Target: RET tyrosine kinase (Homo sapiens (Human), UniProt P07949)
Experiment: Assay of small molecular compounds for inhibiting the activity of RET kinase (LANCE TR-FRET)
Settings: not given

Sequence of RET tyrosine kinase (P07949 29-1114): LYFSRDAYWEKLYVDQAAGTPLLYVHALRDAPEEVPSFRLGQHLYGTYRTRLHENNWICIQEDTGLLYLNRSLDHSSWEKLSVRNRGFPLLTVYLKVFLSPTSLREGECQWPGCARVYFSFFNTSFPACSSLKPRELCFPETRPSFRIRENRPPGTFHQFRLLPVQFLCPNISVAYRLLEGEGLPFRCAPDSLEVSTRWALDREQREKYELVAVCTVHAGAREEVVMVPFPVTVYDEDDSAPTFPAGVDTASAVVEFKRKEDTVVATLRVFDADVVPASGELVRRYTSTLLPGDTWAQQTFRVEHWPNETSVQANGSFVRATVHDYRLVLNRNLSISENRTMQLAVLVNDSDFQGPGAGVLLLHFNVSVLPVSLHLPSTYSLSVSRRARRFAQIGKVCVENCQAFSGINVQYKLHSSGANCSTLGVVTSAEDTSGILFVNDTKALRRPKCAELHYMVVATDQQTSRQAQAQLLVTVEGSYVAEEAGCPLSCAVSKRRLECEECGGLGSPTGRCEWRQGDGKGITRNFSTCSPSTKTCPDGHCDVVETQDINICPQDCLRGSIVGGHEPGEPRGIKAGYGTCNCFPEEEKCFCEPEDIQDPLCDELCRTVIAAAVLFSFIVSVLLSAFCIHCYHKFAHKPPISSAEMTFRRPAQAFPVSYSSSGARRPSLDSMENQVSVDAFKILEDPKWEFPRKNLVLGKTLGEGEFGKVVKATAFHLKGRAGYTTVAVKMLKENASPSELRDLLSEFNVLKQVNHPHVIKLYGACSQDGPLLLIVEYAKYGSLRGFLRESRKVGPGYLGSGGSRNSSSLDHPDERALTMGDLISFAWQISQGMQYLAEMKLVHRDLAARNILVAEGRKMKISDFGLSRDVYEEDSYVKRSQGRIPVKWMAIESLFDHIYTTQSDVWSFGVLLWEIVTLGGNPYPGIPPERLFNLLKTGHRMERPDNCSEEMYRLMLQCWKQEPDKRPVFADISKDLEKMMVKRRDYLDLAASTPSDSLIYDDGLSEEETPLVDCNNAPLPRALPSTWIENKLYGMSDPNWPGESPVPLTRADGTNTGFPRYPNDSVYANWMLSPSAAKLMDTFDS

Structure (SMILES)	IC50
O=C(Nc1ccc(Oc2ccnc3cc(OC4CCOCC4)c4c(c23)OCCO4)cc1)Nc1ccc(Cl)c(C(F)(F)F)c1 [Example 33, 1-(4-chloro-3-(trifluoromethyl)phenyl)-3-(4-((5-((tetrahydro-2H-pyran-4-yl)oxy)-2,3-dihydro-[1,4]dioxino[2,3-f]quinolin-10-yl)oxy)phenyl)urea]	50 to 500 nM
COCCOc1cc2nccc(Oc3ccc(NC(=O)Nc4cc(C(F)(F)F)ccc4F)cc3)c2c2c1OCCO2 [Example 34, 1-(2-fluoro-5-(trifluoromethyl)phenyl)-3-(4-((5-(2-methoxyethoxy)-2,3-dihydro-[1,4]dioxino[2,3-f]quinolin-10-yl)oxy)phenyl)urea]	< 50 nM
O=C(Nc1ccc(Oc2ccnc3cc(OCCCN4CCOCC4)c4c(c23)OCCO4)cc1Cl)NC1CCCC1 [Example 75, 1-(2-chloro-4-((5-(3-morpholinopropoxy)-2,3-dihydro-[1,4]dioxino[2,3-f]quinolin-10-yl)oxy)phenyl)-3-cyclopentylurea]	< 50 nM
COCCCOc1cc2nccc(Oc3ccc(NC(=O)NC4CCCC4)c(Cl)c3)c2c2c1OCCO2 [Example 73, 1-(2-chloro-4-((5-(3-methoxypropoxy)-2,3-dihydro-[1,4]dioxino[2,3-f]quinolin-10-yl)oxy)phenyl)-3-cyclopentylurea]	50 to 500 nM
O=C(Nc1ccc(Oc2ccnc3cc(OC4COC4)c4c(c23)OCCO4)cc1)Nc1ccc(Cl)c(C(F)(F)F)c1 [Example 31]	50 to 500 nM
COCCCOc1cc2nccc(Oc3ccc(NC(=O)Nc4ccc(Cl)c(C(F)(F)F)c4)c(F)c3)c2c2c1OCCO2 [Example 39, 1-(4-chloro-3-(trifluoromethyl)phenyl)-3-(2-fluoro-4-((5-(3-methoxypropoxy)-2,3-dihydro-[1,4]dioxino[2,3-f]quinolin-10-yl)oxy)phenyl)urea]	50 to 500 nM
COCCCOc1cc2nccc(Oc3ccc(NC(=O)Nc4ccc(Cl)c(C(F)(F)F)c4)cc3F)c2c2c1OCCO2 [Example 38, 1-(4-chloro-3-(trifluoromethyl)phenyl)-3-(3-fluoro-4-((5-(3-methoxypropoxy)-2,3-dihydro-[1,4]dioxino[2,3-f]quinolin-10-yl)oxy)phenyl)urea]	50 to 500 nM
COc1cc2nccc(Oc3ccc(NC(=O)Nc4ccc(F)cc4F)cc3)c2c2c1OCCO2 [Example 4, 1-(2,4-difluorophenyl)-3-(4-((5-methoxy-2,3-dihydro-[1,4]dioxino[2,3-f]quinolin-10-yl)oxy)phenyl)urea]	50 to 500 nM
COc1cc2nccc(Oc3ccc(NC(=O)NCC(C)C)c(Cl)c3)c2c2c1OCCO2 [Example 83, 1-(2-chloro-4-((5-methoxy-2,3-dihydro-[1,4]dioxino[2,3-f]quinolin-10-yl)oxy)phenyl)-3-isobutylurea]	50 to 500 nM
N#CCOc1cc2nccc(Oc3ccc(NC(=O)Nc4ccc(Cl)c(C(F)(F)F)c4)cc3)c2c2c1OCCO2 [Example 13, 1-(4-chloro-3-(trifluoromethyl)phenyl)-3-(4-((5-(cyanomethoxy)-2,3-dihydro-[1,4]dioxino[2,3-f]quinolin-10-yl)oxy)phenyl)urea]	50 to 500 nM
O=C(Nc1ccc(Oc2ccnc3cc(OCCCN4CCS(=O)(=O)CC4)c4c(c23)OCCO4)cc1)Nc1ccc(Cl)c(C(F)(F)F)c1 [Example 23, 1-(4-chloro-3-(trifluoromethyl)phenyl)-3-(4-((5-(3-(1,1-dioxothiomorpholino)propoxy)-2,3-dihydro-[1,4]dioxino[2,3-f]quinolin-10-yl)oxy)phenyl)urea]	50 to 500 nM
O=C(Nc1ccc(Oc2ccnc3cc(OC4CCOC4)c4c(c23)OCCO4)cc1)Nc1ccc(Cl)c(C(F)(F)F)c1 (stereo not shown) [Example 32, 1-(4-chloro-3-(trifluoromethyl)phenyl)-3-(4-((5-((tetrahydrofuran-3-yl)oxy)-2,3-dihydro-[1,4]dioxino[2,3-f]quinolin-10-yl)oxy)phenyl)urea]	50 to 500 nM
O=C(Nc1ccc(Oc2ccnc3cc(OCCCN4CCOCC4)c4c(c23)OCCO4)c(F)c1)Nc1ccc(Cl)c(C(F)(F)F)c1 [Example 41, 1-(4-chloro-3-(trifluoromethyl)phenyl)-3-(3-fluoro-4-((5-(3-morpholinopropoxy)-2,3-dihydro-[1,4]dioxino[2,3-f]quinolin-10-yl)oxy)phenyl)urea]	50 to 500 nM
COCCOc1cc2nccc(Oc3ccc(NC(=O)Nc4ccc(Cl)c(C(F)(F)F)c4)c(F)c3)c2c2c1OCCO2 [Example 37, 1-(4-chloro-3-(trifluoromethyl)phenyl)-3-(2-fluoro-4-((5-(2-methoxyethoxy)-2,3-dihydro-[1,4]dioxino[2,3-f]quinolin-10-yl)oxy)phenyl)urea]	< 50 nM
COCCOc1cc2nccc(Oc3ccc(NC(=O)NC4CCCC4)c(Cl)c3)c2c2c1OCCO2 [Example 71, 1-(2-chloro-4-((5-(2-methoxyethoxy)-2,3-dihydro-[1,4]dioxino[2,3-f]quinolin-10-yl)oxy)phenyl)-3-cyclopentylurea]	< 50 nM

Same assay, conditions: read-out: RET IC50

Structure (SMILES)	IC50
COc1cc2nccc(Oc3ccc(NC(=O)NC(C)C)c(Cl)c3)c2c2c1OCCO2 [Example 82, 1-(2-chloro-4-((5-methoxy-2,3-dihydro-[1,4]dioxino[2,3-f]quinolin-10-yl)oxy)phenyl)-3-isopropylurea]	< 50 nM
COc1cc2nccc(Oc3ccc(NC(=O)NC4CCC4)c(Cl)c3)c2c2c1OCCO2 [Example 68, 1-(2-chloro-4-((5-methoxy-2,3-dihydro-[1,4]dioxino[2,3-f]quinolin-10-yl)oxy)phenyl)-3-cyclobutylurea]	< 50 nM
COCCOc1cc2nccc(Oc3ccc(NC(=O)Nc4ccc(Cl)c(C(F)(F)F)c4)cc3F)c2c2c1OCCO2 [Example 36, 1-(4-chloro-3-(trifluoromethyl)phenyl)-3-(3-fluoro-4-((5-(2-methoxyethoxy)-2,3-dihydro-[1,4]dioxino[2,3-f]quinolin-10-yl)oxy)phenyl)urea]	< 50 nM
COCCCOc1cc2nccc(Oc3ccc(NC(=O)Nc4cc(C(F)(F)F)ccc4F)cc3)c2c2c1OCCO2 [Example 40, 1-(2-fluoro-5-(trifluoromethyl)phenyl)-3-(4-((5-(3-methoxypropoxy)-2,3-dihydro-[1,4]dioxino[2,3-f]quinolin-10-yl)oxy)phenyl)urea]	< 50 nM
COc1cc2nccc(Oc3ccc(NC(=O)Nc4cc(C(F)(F)F)ccc4F)cc3)c2c2c1OCCO2 [Example 2, 1-(2-fluoro-5-(trifluoromethyl)phenyl)-3-(4-((5-methoxy-2,3-dihydro-[1,4]dioxino[2,3-f]quinolin-10-yl)oxy)phenyl)urea]	< 50 nM
CC(C)COc1cc2nccc(Oc3ccc(NC(=O)NC4CC4)c(Cl)c3)c2c2c1OCCO2 [Example 45, 1-(2-chloro-4-((5-isobutoxy-2,3-dihydro-[1,4]dioxino[2,3-f]quinolin-10-yl)oxy)phenyl)-3-cyclopropylurea]	< 50 nM
COCCCCCCOc1cc2nccc(Oc3ccc(NC(=O)Nc4ccc(Cl)c(C(F)(F)F)c4)cc3)c2c2c1OCCO2 [Example 29, 1-(4-chloro-3-(trifluoromethyl)phenyl)-3-(4-((5-((6-methoxyhexyl)oxy)-2,3-dihydro-[1,4]dioxino[2,3-f]quinolin-10-yl)oxy)phenyl)urea]	< 50 nM
CCOc1cc2nccc(Oc3ccc(NC(=O)Nc4ccc(Cl)c(C(F)(F)F)c4)c(F)c3)c2c2c1OCCO2 [Example 35, 1-(4-chloro-3-(trifluoromethyl)phenyl)-3-(4-((5-ethoxy-2,3-dihydro-[1,4]dioxino[2,3-f]quinolin-10-yl)oxy)-2-fluorophenyl)urea]	< 50 nM
CC1(C)CCN(CCCOc2cc3nccc(Oc4ccc(NC(=O)Nc5ccc(Cl)c(C(F)(F)F)c5)cc4)c3c3c2OCCO3)CC1 [Example 24, 1-(4-chloro-3-(trifluoromethyl)phenyl)-3-(4-((5-(3-(4,4-dimethylpiperidin-1-yl)propoxy)-2,3-dihydro-[1,4]dioxino[2,3-f]quinolin-10-yl)oxy)phenyl)urea]	< 50 nM
O=C(Nc1ccc(Oc2ccnc3cc(OC4COC4)c4c(c23)OCCO4)cc1Cl)NC1CC1 [Example 65, 1-(2-chloro-4-((5-(oxetan-3-yloxy)-2,3-dihydro-[1,4]dioxino[2,3-f]quinolin-10-yl)oxy)phenyl)-3-cyclopropylurea]	< 50 nM
CC(=O)N1CCN(CCCOc2cc3nccc(Oc4ccc(NC(=O)Nc5ccc(Cl)c(C(F)(F)F)c5)cc4)c3c3c2OCCO3)CC1 [Example 22, 1-(4-((5-(3-(4-acetylpiperazin-1-yl)propoxy)-2,3-dihydro-[1,4]dioxino[2,3-f]quinolin-10-yl)oxy)phenyl)-3-(4-chloro-3-(trifluoromethyl)phenyl)urea]	< 50 nM
COc1cc2nccc(Oc3ccc(NC(=O)NC4CCCC4)c(Cl)c3)c2c2c1OCCO2 [Example 69, 1-(2-chloro-4-((5-methoxy-2,3-dihydro-[1,4]dioxino[2,3-f]quinolin-10-yl)oxy)phenyl)-3-cyclopentylurea]	< 50 nM
O=C(Nc1ccc(Cl)c(C(F)(F)F)c1)Nc1ccc(Oc2ccnc3cc(OCCCN4CCOCC4)c4c(c23)OCCO4)cc1F [Example 42, 1-(4-chloro-3-(trifluoromethyl)phenyl)-3-(2-fluoro-4-((5-(3-morpholinopropoxy)-2,3-dihydro-[1,4]dioxino[2,3-f]quinolin-10-yl)oxy)phenyl)urea]	< 50 nM
CC(C)Oc1cc2nccc(Oc3ccc(NC(=O)NC4CC4)c(Cl)c3)c2c2c1OCCO2 [Example 44, 1-(2-chloro-4-((5-isopropoxy-2,3-dihydro-[1,4]dioxino[2,3-f]quinolin-10-yl)oxy)phenyl)-3-cyclopropylurea]	< 50 nM
COc1cc2nccc(Oc3ccc(NC(=O)Nc4ccc(Cl)c(C(F)(F)F)c4)c(F)c3)c2c2c1OCCO2 [Example 6, 1-(4-chloro-3-(trifluoromethyl)phenyl)-3-(2-fluoro-4-((5-methoxy-2,3-dihydro-[1,4]dioxino[2,3-f]quinolin-10-yl)oxy)phenyl)urea]	< 50 nM
O=C(Nc1ccc(Oc2ccnc3cc(OCCCN4CCOCC4)c4c(c23)OCCO4)cc1)Nc1cc(C(F)(F)F)ccc1F [Example 76, 1-(2-fluoro-5-(trifluoromethyl)phenyl)-3-(4-((5-(3-morpholinopropoxy)-2,3-dihydro-[1,4]dioxino[2,3-f]quinolin-10-yl)oxy)phenyl)urea]	< 50 nM
